# Laboratory results published in paper PMC6037779, “Repurposing drugs to target the malaria parasite unfolding protein response” (Scientific Reports, 2018).
# Key:
# [1] = system: HCT-116; test: Growth inhibition of human cell line; type: cell-based
# Description: (§1) Growth inhibition experiments were conducted at least three times per compound. […] The statistical analysis was performed with the software Prism 7 (GraphPad Software, San Diego, CA).
# [2] = system: Plasmodium falciparum W2; test: In vitro growth inhibition assay (SYBR Green I), strain W2; type: cell-based; conditions: Plasmodium falciparum, W2; chloroquine-resistant strain; 72 hours; average of three ± SD; read-out: EC50, growth inhibition, P. falciparum W2
# Description: A major goal of our study was to evaluate the drug target potential of P. falciparum GRP78, thus we evaluated the effect of the chaperone inhibition on the malaria parasite. Our approach took advantage of several GRP78 inhibitors (Fig. 3a) previously characterized against human cancer cell lines, which were commercially available[20],[24]–[27]. These compounds were tested against two different parasite strains with opposite sensitivity towards the antimalarial drug chloroquine, 3D7 (sensitive) and W2 (resistant). […] A synchronized P. falciparum culture, with over 80% ring forms, was used in the growth inhibition assay. Each strain was assayed at 0.5% parasitaemia and 1.5% hematocrit. A 190 µL aliquot of parasite culture was dispensed per well to microplates that were pre-dispensed with the compounds at various dilutions. […] Dilutions of GRP78 inhibitors and DHA were prepared in water with a final concentration of DMSO below 0.05% (v/v). […] After incubation, the plates were subject to a freeze-thaw cycle (−80 °C) and the parasite growth was quantified by the SYBR Green I method as previously described. Briefly, 100 µl of homogenized parasite culture was transferred into 96-well black plates. 100 µl of SYBR Green lysis buffer (2x SYBR Green I, 100 mM Tris-HCl pH 7.5, 10 mM EDTA, 0.016% Saponin and 1.6% Triton X-100) were added to each well. The plates were incubated at room temperature in darkness for 1 hour.
# as §1
# [3] = biological target: T1, PfGRP78-NBD wt (Plasmodium falciparum, UniProt Q05866); test: biochemical; type: binding
# T1 construct: His-tag (pET28-MHL, TEV site) (N, cleaved yes); made in house; host or cells: E. coli BL21(DE3)
# Description: To quantify the binding affinities of PfGRP78-NBD for the selected compounds, dissociation constants (Kd) were determined by surface plasmon resonance (SPR). […] Purified PfGRP78-FL, PfGRP78-NBD wild-type and mutant, and human GRP78-NBD were immobilized on a CM5 sensorchip using NHS/EDC coupling following the manufacturer protocol to a level of <10,000 RUs, a reference surfaces without immobilized proteins served as a control for nonspecific binding and refractive index changes. […] The running buffer was 10 mM HEPES, pH 7.4, 150 mM NaCl, 0.005% P20, 1% DMSO and 2 mM MgCl2. Buffer only injections were used as blanks. The Biacore responses recorded during the 30 seconds of the injection were used to estimate the association constant (kon) and the 300 seconds after the injection were used to estimate the dissociation constant (koff). All dissociation and kinetic constants were estimated using double subtracted sensorgrams[40] using BiaEvaluation Software (GE Healthcare). All the reported parasite dissociation constants (Kd) were estimated with affinity analysis, and all the reported human Kds were calculated from kinetic constants.
# [4] = biological target: T2, PfGRP78-NBD (Plasmodium falciparum, UniProt Q05866); test: DSF thermal shift, PfGRP78-NBD; type: binding; conditions: compound 0.5 mM; shifts above or below 1 °C significant
# T2 construct: His-tag (pET28-MHL, TEV site) (N, cleaved yes); made in house; host or cells: E. coli BL21(DE3)
# Description: The Plasmodium and human GRP78 NBD differences were further characterized by measuring their interaction with ATP, ADP, and several compounds referenced in the literature as GRP78 inhibitors (Fig. 3a). Initially, their binding was determined using a DSF (Differential Scanning Fluorimetry) assay. In this assay, an interaction between the chaperone and a compound was measured as a change in the protein’s melting temperature (Tm), by subtracting the Tm of the protein by itself to the melting value of the protein in the presence of the compound. Differences above or below 1 °C between the melting temperatures (ΔTm) were considered indicative of a protein-compound interaction. As expected, the Plasmodium GRP78 chaperone interacted with both ATP and ADP. Four of the six compounds tested had significant effects on protein thermal stability (Fig. 3b).
# DSF screening was carried out using a CFX96 Touch Real-Time PCR Detection System (BioRad, California). The PfGRP78-FL, PfGRP78-NBD wild type and mutant, and human GRP78-NBD were buffered in 25 mM hepes pH 7.5, 250 mM NaCl and assayed in a 96-well format. […]. The concentration was optimized for each protein to avoid saturation of the fluorescence detector. The GRP78 inhibitors were used at a final concentration of 0.5 mM. SYPRO Orange (Life Technologies, USA) was added as a fluorescence probe in a dilution of 1:1000. The experiments were conducted between 18 °C to 90 °C at a heating rate of 1 °C per minute. The recorded fluorescence reads were fitted to the Boltzmann sigmoid function using DMAN software. The inflection point of each fitted curve is defined as the melting temperature (Tm). The observed temperature shift, ΔTm, was recorded as the difference between Tm of the protein with ligand minus Tm of the protein without ligand. Thermal shifts above or below 1 °C were considered significant.
# [5] = biological target: T3, PfGRP78-NBD Y39F (Plasmodium falciparum, UniProt Q05866, Y39F); test: DSF thermal shift, PfGRP78-NBD Y39F mutant; type: binding
# T3 construct: His-tag (pET28-MHL, TEV site) (N, cleaved yes); made in house; host or cells: E. coli BL21(DE3)
# Description: Initially, their binding was determined using a DSF (Differential Scanning Fluorimetry) assay. In this assay, an interaction between the chaperone and a compound was measured as a change in the protein’s melting temperature (Tm), by subtracting the Tm of the protein by itself to the melting value of the protein in the presence of the compound. Differences above or below 1 °C between the melting temperatures (ΔTm) were considered indicative of a protein-compound interaction.
# DSF screening was carried out using a CFX96 Touch Real-Time PCR Detection System (BioRad, California). The PfGRP78-FL, PfGRP78-NBD wild type and mutant, and human GRP78-NBD were buffered in 25 mM hepes pH 7.5, 250 mM NaCl and assayed in a 96-well format. The final concentration of the protein sample was optimized between 0.05 and 0.2 mg/ml for each protein. The concentration was optimized for each protein to avoid saturation of the fluorescence detector. The GRP78 inhibitors were used at a final concentration of 0.5 mM. SYPRO Orange (Life Technologies, USA) was added as a fluorescence probe in a dilution of 1:1000.
# T3 sequence (Q05866 26-404 Y39F): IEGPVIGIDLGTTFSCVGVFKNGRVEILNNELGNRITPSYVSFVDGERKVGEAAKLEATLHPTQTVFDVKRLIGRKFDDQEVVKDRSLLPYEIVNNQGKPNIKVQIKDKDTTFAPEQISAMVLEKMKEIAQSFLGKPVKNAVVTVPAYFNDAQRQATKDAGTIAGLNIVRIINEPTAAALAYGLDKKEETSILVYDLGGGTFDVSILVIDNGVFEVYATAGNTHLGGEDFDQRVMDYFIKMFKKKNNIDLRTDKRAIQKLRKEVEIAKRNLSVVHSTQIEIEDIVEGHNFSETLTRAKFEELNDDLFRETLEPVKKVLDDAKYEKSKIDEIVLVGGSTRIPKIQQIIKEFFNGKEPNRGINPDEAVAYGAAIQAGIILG
# T1 sequence (Q05866 26-404): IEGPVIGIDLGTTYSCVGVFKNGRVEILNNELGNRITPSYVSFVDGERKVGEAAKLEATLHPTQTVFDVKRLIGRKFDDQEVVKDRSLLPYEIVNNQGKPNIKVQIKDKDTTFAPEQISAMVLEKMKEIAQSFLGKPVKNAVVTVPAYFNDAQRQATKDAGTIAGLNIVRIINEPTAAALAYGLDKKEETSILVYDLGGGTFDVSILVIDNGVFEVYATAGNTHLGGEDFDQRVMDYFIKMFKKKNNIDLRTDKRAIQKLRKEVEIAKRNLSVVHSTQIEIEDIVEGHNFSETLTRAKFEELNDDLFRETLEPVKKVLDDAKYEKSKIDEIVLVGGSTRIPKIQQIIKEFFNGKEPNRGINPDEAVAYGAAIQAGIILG
# T2 sequence (Q05866 26-404): as above
compound,measurement,setting,value
COc1ccc(-c2nc(-c3cc(C(F)(F)F)cc(C(F)(F)F)c3)n(Cc3ccc(C(N)=O)cc3)c2-c2ccc(OC)cc2)cc1 [Apoptozole],EC50,"[1]; HCT-116, human cell line, average of three ± SD, read-out: EC50, growth inhibition, HCT-116",16.5 ± 12.8 µM
same,times more selective towards P. falciparum,"[1]; HCT-116 vs P. falciparum EC50, Results text b30",2.9 times
same,EC50,[2],4.5 ± 0.4 µM
same,Kd,[3],4.27 ± 0.86 µM
same,DSF effect on thermal stability of PfGRP78-NBD,[4],increased the thermal stability
same,DSF binding to PfGRP78-NBD Y39F,[5],failed to bind
